# Laboratory results: ChEMBL document CHEMBL1134927, “A series of C-terminal amino alcohol dipeptide A beta inhibitors” (Bioorg Med Chem Lett, 2002)
# System: HEK293
# Assay: Effective dose required to inhibit beta-amyloid formation in a human kidney cell line (HEK 293)
# Format: functional
# Details: read-out: ED50 (the source's name)
row,Structure (SMILES),EC50
1,C[C@H](NC(=O)Cc1cc(F)cc(F)c1)C(=O)N[C@@H](CO)c1ccccc1,> 10000 nM
2,C[C@H](NC(=O)[C@@H](O)c1cc(F)cc(F)c1)C(=O)N[C@H](CO)CC1CCCCC1,200 nM
3,CSCC[C@@H](CO)NC(=O)[C@H](C)NC(=O)Cc1cc(F)cc(F)c1,490 nM
4,C[C@H](NC(=O)[C@@H](O)c1cc(F)cc(F)c1)C(=O)N[C@H](CO)CCCc1ccccc1,130 nM
5,C[C@H](NC(=O)[C@@H](O)c1cc(F)cc(F)c1)C(=O)N[C@H](CO)CCc1ccccc1,270 nM
6,CSCC[C@@H](CO)NC(=O)[C@H](C)NC(=O)[C@@H](O)c1cc(F)cc(F)c1,960 nM
7,C[C@H](NC(=O)Cc1cc(F)cc(F)c1)C(=O)N[C@@H](c1ccccc1)[C@H](O)c1ccccc1,3500 nM
8,CCCC[C@@H](CO)NC(=O)[C@H](C)NC(=O)Cc1cc(F)cc(F)c1,460 nM
9,CCCC[C@H](CO)NC(=O)[C@H](C)NC(=O)[C@@H](O)c1cc(F)cc(F)c1,24500 nM
10,C[C@H](NC(=O)Cc1cc(F)cc(F)c1)C(=O)N[C@H](CO)c1ccccc1,180 nM
11,C[C@H](NC(=O)Cc1cc(F)cc(F)c1)C(=O)NCCO,> 10000 nM
12,CCCC[C@@H](CO)NC(=O)[C@H](C)NC(=O)[C@@H](O)c1cc(F)cc(F)c1,600 nM
13,CCCC[C@H](NC(=O)[C@H](C)NC(=O)Cc1cc(F)cc(F)c1)C(=O)OC,15 nM
14,CCCC[C@H](NC(=O)[C@@H](C)NC(=O)Cc1cc(F)cc(F)c1)C(=O)OC,9400 nM
15,C[C@H](NC(=O)Cc1cc(F)cc(F)c1)C(=O)N[C@H]1c2ccccc2C[C@H]1O,630 nM
16,C[C@H](NC(=O)Cc1cc(F)cc(F)c1)C(=O)N[C@H](c1ccccc1)[C@@H](O)c1ccccc1,> 10000 nM
17,C[C@H](NC(=O)Cc1cc(F)cc(F)c1)C(=O)N(C)[C@H](C)[C@H](O)c1ccccc1,> 10000 nM
18,C#CC[C@@H](CO)NC(=O)[C@H](C)NC(=O)Cc1cc(F)cc(F)c1,10000 nM
19,C[C@H](NC(=O)Cc1cc(F)cc(F)c1)C(=O)N[C@H](C)[C@@H](O)c1ccccc1,> 10000 nM
20,C[C@H](NC(=O)Cc1cc(F)cc(F)c1)C(=O)N[C@@H](C)[C@H](O)c1ccccc1,> 10000 nM
21,COC(=O)C[C@@H](O)[C@H](Cc1ccccc1)NC(=O)[C@H](C)NC(=O)Cc1cc(F)cc(F)c1,> 10000 nM
22,C[C@H](NC(=O)Cc1cc(F)cc(F)c1)C(=O)N(C)[C@@H](C)[C@@H](O)c1ccccc1,> 10000 nM
23,CCCC[C@H](CO)NC(=O)[C@H](C)NC(=O)Cc1cc(F)cc(F)c1,> 29000 nM
24,C[C@H](NC(=O)Cc1cc(F)cc(F)c1)C(=O)N[C@H](CO)CCCc1ccccc1,870 nM
25,C[C@H](NC(=O)Cc1cc(F)cc(F)c1)C(=O)N[C@H](CO)CC1CCCCC1,800 nM
26,C#CC[C@@H](CO)NC(=O)[C@H](C)NC(=O)[C@@H](O)c1cc(F)cc(F)c1,2300 nM
27,C[C@H](NC(=O)Cc1cc(F)cc(F)c1)C(=O)N[C@H](CO)Cc1ccccc1,2700 nM
28,"C[C@H](NC(=O)Cc1cc(F)cc(F)c1)C(=O)NC1c2ccccc2C[C@@H]1O (single isomer, unassigned)",> 10000 nM
